Tested on: HCV genotype 1a replicon cell line
Experiment: HCV Genotype 1a Replicon Assay
Type: cell-based, hepatitis C virus
Conditions: Hepatitis C virus, Huh7.5 cell background, NS3-specific protease activity in lysates, 48 or 72 hours, read-out: Genotype 1a (pEC50 class) (converted)
Outline: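 Huh7.5-based subgenomic genotype 1a replicon cells, plated without G418, exposed to compound dose-responses (0.5% DMSO final) for 48 or 72 h at 37 °C. Lysate NS3/4a protease activity read with 15 μM FRET substrate, 20 min at 37 °C (Ex 340/Em 509 nm); EC50 from 4-parameter fit.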

| Structure (SMILES) | EC50 |
| --- | --- |
| COC(=O)N[C@H](C(=O)N1C[C@@H](OC)C[C@H]1c1nc(-c2ccc(-c3ccc(NC(=O)N4CCN(C5CCN(C(=O)C6CC6)CC5)CC4)cc3OC(F)(F)F)cc2)c[nH]1)C(C)C [Example 5-3] | 0.1 to 1 nM |
| COC(=O)N[C@H](C(=O)N1C[C@@H](OC)C[C@H]1c1nc(-c2ccc(-c3ccc(NC(=O)N4CCN(C5CCN(C(=O)C6CCCC6(C)C)CC5)CC4)cc3OC(F)(F)F)cc2)c[nH]1)C(C)C (stereo partly drawn) [Example 5-4] | 0.1 to 1 nM |
| COC(=O)N[C@H](C(=O)N1C[C@@H](OC)C[C@H]1c1nc(-c2ccc(-c3ccc(NC(=O)N4CCN(C5CCN(C(=O)C(C)(C)CO)CC5)CC4)cc3OC(F)(F)F)cc2)c[nH]1)C(C)C [Example 5-5] | 0.1 to 1 nM |
| COC(=O)N[C@H](C(=O)N1C[C@@H](C)C[C@H]1c1nc(-c2ccc(-c3cc(Cl)c(NC(=O)N4CCN(C5CCN(C(=O)C6CC6(F)F)CC5)CC4)cc3OC(F)(F)F)cc2)c[nH]1)C(C)C (stereo partly drawn) [Example 5] | 0.1 to 1 nM |
| COC(=O)N[C@H](C(=O)N1C[C@@H](C)C[C@H]1c1nc2c(ccc3cc(-c4ccc(NC(=O)N5CCN(C6CCN(C(=O)OC(C)(C)C)CC6)CC5)cc4OC(F)(F)F)ccc32)[nH]1)C(C)C [Example 6-2] | < 0.1 nM |
| COC(=O)N[C@H](C(=O)N1C[C@@H](C)C[C@H]1c1nc2c(ccc3cc(-c4ccc(NC(=O)N5CCN(C6CCN(C(=O)C7CCC7(C)C)CC6)CC5)cc4OC(F)(F)F)ccc32)[nH]1)C(C)C (stereo partly drawn) [Example 6-3] | < 0.1 nM |
| COC(=O)N[C@H](C(=O)N1C[C@@H](C)C[C@H]1c1nc(-c2ccc(-c3cc(Cl)c(NC(=O)N4CCN(C5CCN(C(=O)C6CCC6)CC5)CC4)cc3OC(F)(F)F)cc2)c[nH]1)C(C)C [Example 6] | 0.1 to 1 nM |
| COC(=O)N[C@H](C(=O)N1C[C@@H](C)C[C@H]1c1nc2c(ccc3cc(-c4ccc(NC(=O)N5CCN(C6CCN(C(=O)OC(C)(C)C)CC6)CC5)cc4OC(F)(F)F)ccc32)[nH]1)C1CCOCC1 [Example 7-1] | < 0.1 nM |
| COC(=O)N[C@H](C(=O)N1C[C@@H](C)C[C@H]1c1nc2c(ccc3cc(-c4ccc(NC(=O)N5CCN(C6CCN(C(=O)C(C)(C)C)CC6)CC5)cc4OC(F)(F)F)ccc32)[nH]1)C1CCOCC1 [Example 7-2] | < 0.1 nM |
| COC(=O)N[C@H](C(=O)N1C[C@@H](C)C[C@H]1c1nc2c(ccc3cc(-c4ccc(NC(=O)N5CCN(C6CCN(C(=O)C(C)(C)CO)CC6)CC5)cc4OC(F)(F)F)ccc32)[nH]1)C1CCOCC1 [Example 7-3] | 0.1 to 1 nM |
| COC(=O)N[C@H](C(=O)N1C[C@@H](C)C[C@H]1c1nc2c(ccc3cc(-c4ccc(NC(=O)N5CCN(C6CCN(C(=O)C7CC7)CC6)CC5)cc4OC(F)(F)F)ccc32)[nH]1)C1CCOCC1 [Example 7-4] | < 0.1 nM |
| COC(=O)N[C@H](C(=O)N1C[C@@H](C)C[C@H]1c1nc(-c2ccc(-c3ccc(NC(=O)N4CCN(C5CCN(C(=O)C(C)(C)C)CC5)CC4)cc3OC(F)(F)F)cc2)c(F)[nH]1)C(C)C [Example 8, [(S)-1-((2S,4S)-2-{4-[4′-({4-[1-(2,2-Dimethyl-propionyl)-piperidin-4-yl]-piperazine-1-carbonyl}-amino)-2′-trifluoromethoxy-biphenyl-4-yl]-5-fluoro-1H-imidazol-2-yl}-4-methyl-pyrrolidine-1-carbonyl)-2-methyl-propyl]-carbamic acid methyl ester] | < 0.1 nM |
| COC(=O)N[C@H](C(=O)N1CCC[C@H]1c1nc(-c2ccc(-c3ccc(NC(=O)N4CC5CCC(C4)N5C4CCN(C(=O)C5CC5)CC4)cc3OC(F)(F)F)cc2)c[nH]1)C(C)C [Example 8-1] | 1 to 10 nM |

Same assay, conditions: Huh7.5 cell background, NS3-specific protease activity in lysates, 48 or 72 hours

| Structure (SMILES) | Genotype 1a (pEC50 class) |
| --- | --- |
| COC(=O)N[C@H](C(=O)N1C[C@@H](OC)C[C@H]1c1nc(-c2ccc(-c3ccc(NC(=O)N4CCN(C5CCN(C(=O)[C@H]6CC6(C)C)CC5)CC4)cc3OC(F)(F)F)cc2)c[nH]1)C(C)C [Example 5-2] | C (C represents pEC50 between and 9 and about 10, (EC50 between 1 nM and 0.1 nM)) |
| COC(=O)N[C@H](C(=O)N1C[C@@H](C)C[C@H]1c1nc2c(ccc3cc(-c4ccc(NC(=O)N5CCN(C6CCN(C(=O)[C@H]7CC7(C)C)CC6)CC5)cc4OC(F)(F)F)ccc32)[nH]1)C1CCOCC1 [Example 7-5] | D (D represents pEC50>10 (EC50<0.1 nM)) |
